Numbering of substitutions follows the chain as printed. “And” between values parts separate entries of the source, which are not always exact repeats. Identical values can stand only once. “Also recorded” adds a separate entry of the source. Like-named read-outs stand apart in the source and are kept apart here.
Experiments:
PEPCK-C 139Leu = molecular target: T1, PEPCK-C 139Leu (Sus scrofa, UniProt A0A4X1UM84, M139L); experiment: 3-MP inhibition kinetics (double reciprocal, secondary and Dixon plots); assay type: biochemical, pig
T1 construct: made in house; host or cells: Escherichia coli BL21 (DE3)
T1 sequence (A0A4X1UM84 1-622 M139L): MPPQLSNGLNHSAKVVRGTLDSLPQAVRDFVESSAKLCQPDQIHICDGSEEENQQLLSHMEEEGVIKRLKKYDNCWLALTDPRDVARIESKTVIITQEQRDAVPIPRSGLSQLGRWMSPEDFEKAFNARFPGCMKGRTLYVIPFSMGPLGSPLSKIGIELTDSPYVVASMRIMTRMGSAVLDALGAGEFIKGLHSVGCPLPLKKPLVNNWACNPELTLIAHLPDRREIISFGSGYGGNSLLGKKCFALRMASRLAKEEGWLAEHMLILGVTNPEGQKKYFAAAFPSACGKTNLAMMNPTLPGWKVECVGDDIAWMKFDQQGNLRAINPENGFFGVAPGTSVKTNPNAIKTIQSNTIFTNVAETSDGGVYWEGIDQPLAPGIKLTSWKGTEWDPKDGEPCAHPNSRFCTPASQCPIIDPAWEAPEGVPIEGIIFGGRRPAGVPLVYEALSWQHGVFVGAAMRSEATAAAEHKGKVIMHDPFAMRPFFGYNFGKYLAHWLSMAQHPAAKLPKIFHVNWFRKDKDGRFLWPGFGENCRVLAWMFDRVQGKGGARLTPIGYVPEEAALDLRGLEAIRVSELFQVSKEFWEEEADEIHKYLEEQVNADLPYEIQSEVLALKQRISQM
Procedure: (§1) PEPCK-C activity was measured in an UNICAM 500 spectrometer (UNICAM Analytical Systems, UK) with coupled spectrophotometric assays using pyruvate kinase and lactate dehydrogenase as auxiliary enzymes in PEP synthesis reaction and malate dehydrogenase in the reverse reaction.
(§2) 3-MP inhibitions assays in OAA synthesis direction were carried out as described before with the exception of the variable substrate (50–600 μM for PEP and 10–100 μM for GDP) and 3-MP concentration (10–100 μM). Assays in the direction of PEP synthesis were performed in 1 mL of a 100 mM HEPES buffer pH 7.4, containing 10 mM DTT, 0.2 mM MnCl2, 2 mM MgCl2, 1 mM GTP or 400 μM OAA, 1 mM ADP, 0.2 mM NADH, PEPCK-C and 5 units of each pyruvate kinase and lactate dehydrogenase. Reactions were initiated by addition of OAA. Variable substrates were 5–50 μM OAA or 25–500 μM GTP and 3-MP concentrations were between 10–400 μM. Rates were calculated by measuring the decreasing slope at 340 nm of absorbance after subtracting the rate of spontaneous NADH oxidation in the case of OAA synthesis or the rate of the blank which contained all the components of the mix but PEPCK-C in the case of PEP synthesis.
(§3) 3-MP inhibition assays were fitted in double reciprocal plots. To describe the mixed non-competitive inhibition, the double reciprocal equation can be written as: 1/v = Km/Vmax (1+[I]/Ki) 1/[S]+1/Vmax (1+[I]/αKi) (2)
(§4) Ki and αKi are the dissociation constants of the enzyme-inhibitor complex and the enzyme-inhibitor-substrate complex, respectively.
(§5) The equation for the Dixon plot is: 1/v = Km/Vmax[S]+1/Vmax+Km/Vmax[S]Ki (5)

PEPCK-C 139Met = molecular target: T2, PEPCK-C 139Met (Sus scrofa, UniProt A0A4X1UM84); experiment: as above; assay type: biochemical, pig; parameters: made in house; host or cells: Escherichia coli BL21 (DE3)
T2 sequence (A0A4X1UM84 1-622): T1 sequence (A0A4X1UM84 1-622 M139L) with L139M
Procedure: as §1, §2, §3, §4, §5

Pattern of inhibition (GDP) (PEPCK-C 139Leu; 139Leu, GDP as variable substrate): uncompetitive inhibitor
Pattern of inhibition (GTP) (PEPCK-C 139Leu; 139Leu, GTP as variable substrate): uncompetitive inhibitor
αKi (OAA) (PEPCK-C 139Leu; 139Leu, OAA as variable substrate, PEP synthesis direction): 21 ± 13 ns μM
Ki (PEPCK-C 139Leu; 139Leu, OAA as variable substrate, PEP synthesis direction, read-out: Ki (OAA)): 29 ± 1 µM
αKi (PEP) (PEPCK-C 139Leu; 139Leu, PEP as variable substrate, OAA synthesis direction): 31 ± 5 μM and 31 ± 5 ns μM
Ki (PEPCK-C 139Leu; 139Leu, PEP as variable substrate, OAA synthesis direction, read-out: Ki (PEP)): 19 ± 4 µM
Ki (PEPCK-C 139Leu; 139Leu, with respect to GDP, Dixon plot, substrates saturating, read-out: Ki (GDP)): 45 ± 0.8 µM
Ki (PEPCK-C 139Leu; 139Leu, with respect to GTP, Dixon plot, substrates saturating, read-out: Ki (GTP)): 873 ± 144 µM
Ki for 139Leu larger than for 139Met (OAA binding) (PEPCK-C 139Leu; OAA as variable substrate): 50%
Pattern of inhibition (GDP) (PEPCK-C 139Met; 139Met, GDP as variable substrate): uncompetitive inhibitor
Pattern of inhibition (GTP) (PEPCK-C 139Met; 139Met, GTP as variable substrate): uncompetitive inhibitor
αKi (OAA) (PEPCK-C 139Met; 139Met, OAA as variable substrate, PEP synthesis direction): 49 ± 18 µM
Ki (PEPCK-C 139Met; 139Met, OAA as variable substrate, PEP synthesis direction, read-out: Ki (OAA)): 18 ± 4 µM
αKi (PEP) (PEPCK-C 139Met; 139Met, PEP as variable substrate, OAA synthesis direction): 20 ± 4 µM
Ki (PEPCK-C 139Met; 139Met, PEP as variable substrate, OAA synthesis direction, read-out: Ki (PEP)): 16 ± 2 µM
Ki (PEPCK-C 139Met; 139Met, with respect to GDP, Dixon plot, substrates saturating, read-out: Ki (GDP)): 45 ± 3 µM
Ki (PEPCK-C 139Met; 139Met, with respect to GTP, Dixon plot, substrates saturating, read-out: Ki (GTP)): 273 ± 68 µM
Ki fold lower for 139Met than 139Leu (GTP) (PEPCK-C 139Met; GTP as variable substrate): 3 fold
Ki fold lower for 139Met than 139Leu (OAA) (PEPCK-C 139Met; OAA as variable substrate): 1.6 fold
Structure (SMILES): O=C(O)c1ncccc1S [3-MP, 3-mercaptopicolinic acid]
Pattern of inhibition (OAA) (PEPCK-C 139Leu; 139Leu, OAA as variable substrate): mixed non-competitive inhibitor; also recorded: Mixed NC
Pattern of inhibition (PEP) (PEPCK-C 139Leu; 139Leu, PEP as variable substrate): mixed non-competitive inhibitor; also recorded: Mixed NC
Pattern of inhibition (OAA) (PEPCK-C 139Met; 139Met, OAA as variable substrate): mixed non-competitive inhibitor; also recorded: Mixed NC
Pattern of inhibition (PEP) (PEPCK-C 139Met; 139Met, PEP as variable substrate): mixed non-competitive inhibitor; also recorded: Mixed NC

Reference: paper PMC4938538, “Inhibition of Pig Phosphoenolpyruvate Carboxykinase Isoenzymes by 3-Mercaptopicolinic Acid and Novel Inhibitors” (PLoS ONE, 2016)
